Consider 15 molecules from patent US20090069320A1, “Substituted 4-Amino-Quinazoline Compounds with Metabotropic Glutamate Receptor Regulating Activity and Uses Thereof” (Gruenenthal GmbH, priority 2006, published 2009).

Counter-ions that a name gives are not always drawn.

This experiment deals with T1, mGluR5 receptor (Sus scrofa, UniProt I3LUI7).
T1 construct: 450 μg of protein from brain homogenate with 5 nM ^3[H]-MPEP; from tissue; host or cells: pig brain halves without medulla, cerebellum and pons
The experiment is described as follows: [3H]-MPEP mGluR5 receptor binding assay (pig brain homogenate). The note with it: 5 nM [3H]-MPEP, read-out: IC50 mGluR5 Receptor (pig) [^3H]-MPEP Bond. The gist of the method: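 Radioligand displacement of 5 nM [3H]-MPEP from pig brain homogenate (450 μg protein; medulla, cerebellum and pons removed) in 20 mM Hepes pH 8.0. Compounds were tested at 10 μM, incubated 60 min at room temperature, then filtered and counted by scintillation. Non-specific binding was defined with 10 μM MPEP.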

T1 sequence (I3LUI7 19-1212): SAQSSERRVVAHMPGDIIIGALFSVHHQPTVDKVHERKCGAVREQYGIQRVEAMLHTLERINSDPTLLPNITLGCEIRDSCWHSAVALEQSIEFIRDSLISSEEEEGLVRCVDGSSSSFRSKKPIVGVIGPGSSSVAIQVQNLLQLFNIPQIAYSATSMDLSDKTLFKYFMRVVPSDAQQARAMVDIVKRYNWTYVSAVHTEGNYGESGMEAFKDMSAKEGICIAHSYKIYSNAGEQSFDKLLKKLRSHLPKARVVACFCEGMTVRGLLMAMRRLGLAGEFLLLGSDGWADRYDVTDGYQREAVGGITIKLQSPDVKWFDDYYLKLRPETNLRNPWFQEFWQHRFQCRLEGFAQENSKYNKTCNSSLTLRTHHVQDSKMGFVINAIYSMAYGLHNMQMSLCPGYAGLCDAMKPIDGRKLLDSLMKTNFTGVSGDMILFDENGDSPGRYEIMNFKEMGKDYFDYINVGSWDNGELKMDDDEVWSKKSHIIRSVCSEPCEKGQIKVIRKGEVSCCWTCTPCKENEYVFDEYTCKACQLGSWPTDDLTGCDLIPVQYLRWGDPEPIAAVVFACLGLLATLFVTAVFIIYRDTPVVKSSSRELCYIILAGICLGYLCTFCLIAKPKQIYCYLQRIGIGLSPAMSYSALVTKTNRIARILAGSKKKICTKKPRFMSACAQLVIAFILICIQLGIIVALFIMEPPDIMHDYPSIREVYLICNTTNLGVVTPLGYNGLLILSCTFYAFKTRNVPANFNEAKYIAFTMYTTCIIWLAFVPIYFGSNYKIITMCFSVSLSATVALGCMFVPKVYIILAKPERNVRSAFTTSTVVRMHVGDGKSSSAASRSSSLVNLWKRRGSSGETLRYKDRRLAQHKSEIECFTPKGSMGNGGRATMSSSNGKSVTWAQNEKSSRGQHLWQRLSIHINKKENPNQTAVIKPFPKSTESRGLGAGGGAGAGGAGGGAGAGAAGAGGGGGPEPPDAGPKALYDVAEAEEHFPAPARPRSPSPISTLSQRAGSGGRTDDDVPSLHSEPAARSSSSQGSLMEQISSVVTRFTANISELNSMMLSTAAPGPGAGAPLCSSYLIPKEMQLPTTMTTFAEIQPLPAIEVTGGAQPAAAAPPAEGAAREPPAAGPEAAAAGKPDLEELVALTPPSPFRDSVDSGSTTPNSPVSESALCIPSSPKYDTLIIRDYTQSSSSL

Consider `O=C(c1ccno1)N(Cc1cccc(-c2ccc3ncnc(NC4CC4)c3c2)c1)C1CC1` [Example 253, isoxazole-5-carboxylic acid cyclopropyl-[3-(4-cyclopropylamino-quinazolin-6-yl)-benzyl]-amide], for which the IC50 is 1.31 µM.

Take `O=C(c1c(F)c(F)c(F)c(F)c1F)N(Cc1cccc(-c2ccc3ncnc(NC4CC4)c3c2)c1)C1CC1` [Example 254, N-cyclopropyl-N-[3-(4-cyclopropylamino-quinazolin-6-yl)-benzyl]-2,3,4,5,6-pentafluoro-benzamide]: the IC50 came out at 0.6 µM.

Regarding `O=C(C=Cc1ccccc1)N(Cc1cccc(-c2ccc3ncnc(NC4CC4)c3c2)c1)C1CC1` [Example 255, N-cyclopropyl-N-[3-(4-cyclopropylamino-quinazolin-6-yl)-benzyl]-3-phenyl-acrylamide], the IC50 is 1.85 µM.

Take `CCCCC(=O)N(Cc1cccc(-c2ccc3ncnc(NC4CC4)c3c2)c1)C1CC1` [Example 256, pentanoic acid cyclopropyl-[3-(4-cyclopropylamino-quinazolin-6-yl)-benzyl]-amide]: the IC50 amounted to 1.47 µM.

Take `O=C(c1ccncc1)N(Cc1cccc(-c2ccc3ncnc(NC4CC4)c3c2)c1)C1CC1` [Example 257, N-cyclopropyl-N-[3-(4-cyclopropylamino-quinazolin-6-yl)-benzyl]-isonicotinamide]: the IC50 came out at 0.74 µM.

With `COc1ccc(-c2ccc3ncnc(NC4CC4)c3c2)cc1CN(C(C)=O)C1CC1` [Example 259, N-cyclopropyl-N-[5-(4-cyclopropylamino-quinazolin-6-yl)-2-methoxy-benzyl]-acetamide], the IC50 was determined as 0.29 µM.

As for `O=C(CCc1ccccc1)N(Cc1cccc(-c2ccc3ncnc(NC4CC4)c3c2)c1)C1CC1` [Example 263, N-cyclopropyl-N-[3-(4-cyclopropylamino-quinazolin-6-yl)-benzyl]-3-phenyl-propionamide], the IC50 came to 1.7 µM.

For `O=C(Cc1ccccc1)N(Cc1cccc(-c2ccc3ncnc(NC4CC4)c3c2)c1)C1CC1` [Example 264, N-cyclopropyl-N-[3-(4-cyclopropylamino-quinazolin-6-yl)-benzyl]-2-phenyl-acetamide], the IC50 is 1.52 µM.

For the molecule `O=C(C1CCCCC1)N(Cc1cccc(-c2ccc3ncnc(NC4CC4)c3c2)c1)C1CC1` [Example 265, N-cyclopropyl-N-(3-(4-(cyclopropylamino)quinazolin-6-yl)benzyl)cyclohexane carboxamide], the IC50 turned out to be 1.89 µM.

As for `CC(C)(C)C(=O)N(Cc1cccc(-c2ccc3ncnc(NC4CC4)c3c2)c1)C1CC1` [Example 266, N-cyclopropyl-N-(3-(4-(cyclopropylamino)quinazolin-6-yl)benzyl)pivalamide], the IC50 turned out to be 1.27 µM.

For the molecule `COc1ccc(CN(C(=O)c2ccccc2)C2CC2)cc1-c1ccc2ncnc(NC3CC3)c2c1` [Example 267, N-cyclopropyl-N-(3-(4-(cyclopropylamino)quinazolin-6-yl)-4-methoxybenzyl)benzamide hydrochloride], the IC50 was 6.55 µM.

In the case of `COc1ccc(CN(C(=O)c2ccccc2)C2CC2)cc1-c1ccc2ncnc(NC3CC3)c2c1` [Example 268, N-cyclopropyl-N-(3-(4-(cyclopropylamino)quinazolin-6-yl)-4-methoxybenzyl)benzamide], the IC50 was determined as 5.41 µM.

For `CN(c1ncnc2ccc(-c3cccc(CN(C(=O)c4ccccn4)C4CC4)c3)cc12)C1CC1` [Example 272, N-cyclopropyl-N-(3-(4-(cyclopropyl(methyl)amino)quinazolin-6-yl)benzyl)picolinamide], the IC50 was 15.3 µM.

On to `O=C(c1ccccc1)N(Cc1cccc(-c2ccc3ncnc(NC4CC4)c3c2)c1)C1CC1` [Example 274, N-cyclopropyl-N-(3-(4-(cyclopropylamino)quinazolin-6-yl)benzyl)benzamide], for which the IC50 turned out to be 0.86 µM.

As to `O=C(c1ccccn1)N(Cc1cccc(-c2ccc3ncnc(NC4CC4)c3c2)c1)C1CC1` [Example 275, N-cyclopropyl-N-(3-(4-(cyclopropylamino)quinazolin-6-yl)benzyl) picolinamide], the IC50 worked out at 1.38 µM.

As a reminder, the IC50 is the concentration that inhibits the measured activity by half.
